Patent publication US9131690B2, “Macrocyclic picolinamides as fungicides” (Dow AgroSciences LLC, priority 2012, dated 2015)
Where two headings read alike, the source gives them in different places.

What was measured:
[1] = test system: Mycosphaerella graminicola; Anamorph: Septoria tritici; assay: Fungicidal activity: Leaf Blotch of Wheat (SEPTTR), wheat plants variety Yuma; format: in vivo; parameters: key to SEPTTR 3DC Disease Control: A: 50-100; B: More than 0-Less than 50; C: Not Tested; D: No activity noticed in this bioassay; conditions: for pest or weed control at 100 ppm: Zymoseptoria tritici; for SEPTTR 3DC Disease Control: 100 ppm
Experimental: Evaluation of Fungicidal Activity: Leaf Blotch of Wheat (Mycosphaerella graminicola; Anamorph: Septoria tritici; Bayer Code […]) Wheat plants (variety Yuma) were grown from seed in a greenhouse in 50% mineral soil/50% soil-less Metro mix until the first leaf was fully emerged, with 7-10 seedlings per pot. These plants were inoculated with an aqueous spore suspension of Septoria tritici either prior to or after fungicide treatments. After inoculation the plants were kept in 100% relative humidity (one day in a dark dew chamber followed by two to three days in a lighted dew chamber) to permit spores to germinate and infect the leaf. The plants were then transferred to a greenhouse at 20° C. for disease to develop.

[2] = test system: Puccinia triticina. Synonym: Puccinia recondite f. sp. tritici; assay: Fungicidal activity: Wheat Brown Rust (PUCCRT), wheat plants variety Yuma; format: in vivo; parameters: key to PUCCRT 3DC Disease Control: A: 50-100; B: More than 0-Less than 50; C: Not Tested; D: No activity noticed in this bioassay; conditions: for pest or weed control at 100 ppm: Puccinia triticina; for PUCCRT 3DC Disease Control: 100 ppm
Experimental: Evaluation of Fungicidal Activity: Wheat Brown Rust (Puccinia triticina. Synonym: Puccinia recondite f. sp. tritici; Bayer Code PUCCRT) Wheat plants (variety Yuma) were grown from seed in a greenhouse in 50% mineral soil/50% soil-less Metro mix until the first leaf was fully emerged, with 7-10 seedlings per pot. These plants were inoculated with an aqueous spore suspension of Puccinia recondite f. sp. tritici either prior to or after fungicide treatments. After inoculation the plants were kept in 100% relative humidity overnight to permit spores to germinate and infect the leaf. The plants were then transferred to a greenhouse set at 24 C for disease to develop.

[3] = 24 h, 1 Day Protectant, read-out: SEPTTR 1DP Disease Control
[4] = 72 h, 3 Day Curative, read-out: SEPTTR 3DC Disease Control
[5] = 24 h, 1 Day Protectant, read-out: PUCCRT 1DP Disease Control
[6] = 72 h, 3 Day Curative, read-out: PUCCRT 3DC Disease Control

Structure (SMILES)	pest or weed control at 100 ppm [1, 3] [%]	pest or weed control at 100 ppm [1, 4] [%]	pest or weed control at 100 ppm [2, 5] [%]	pest or weed control at 100 ppm [2, 6] [%]	melting point [°C]	PUCCRT 3DC Disease Control ([2]; 3 Day Curative)	SEPTTR 3DC Disease Control ([1]; 3 Day Curative)
COc1ccnc(C(=O)N[C@H]2COC(=O)[C@H](Cc3cncnc3)[C@@H](OC(=O)C(C)C)[C@H](C)OC2=O)c1O [Compound 14]	0 to 50	0 to 50	50 to 100	50 to 100	169 to 175		
COc1ccnc(C(=O)N[C@H]2COC(=O)[C@H](Cc3cccc4ccccc34)[C@@H](OC(=O)C(C)C)[C@H](C)OC2=O)c1O [Compound 15]	50 to 100	0 to 50	50 to 100	0 to 50	192 to 197		
COc1ccnc(C(=O)N[C@H]2COC(=O)[C@H](Cc3cccc(C(F)(F)F)c3)[C@@H](OC(=O)C(C)C)[C@H](C)OC2=O)c1O [Compound 16]	50 to 100	0 to 50	50 to 100	0 to 50	188 to 190		
C=CC[C@H]1C(=O)OC[C@H](NC(=O)c2nccc(OC)c2O)C(=O)O[C@@H](C)[C@@H]1OC(=O)C(C)C [Compound 17]	50 to 100	0 to 50	50 to 100	50 to 100	161 to 165		
CCCC/C=C/C[C@H]1C(=O)OC[C@H](NC(=O)c2nccc(OC)c2O)C(=O)O[C@@H](C)[C@@H]1OC(=O)C(C)C [Compound 18]	50 to 100	0 to 50	50 to 100		146 to 148	D	
COc1ccnc(C(=O)N[C@H]2COC(=O)[C@H](CCOC(=O)c3ccccc3)[C@@H](OC(=O)C(C)C)[C@H](C)OC2=O)c1OCOC(=O)C(C)C [Compound 19, 2-((3S,7R,8R,9S)-8-(isobutyryloxy)-3-(3-(isobutyryloxymethoxy)-4-methoxypicolinamido)-9-methyl-2,6-dioxo-1,5-dioxonan-7-yl)ethyl benzoate]	50 to 100	0 to 50	50 to 100	50 to 100	48 to 50		
COc1ccnc(C(=O)N[C@H]2COC(=O)[C@H](Cc3ccc(C)cc3)[C@@H](OC(=O)C(C)C)[C@H](C)OC2=O)c1OCOC(=O)C(C)C [Compound 22]	0 to 50	0 to 50	50 to 100	50 to 100	131 to 133		
COc1ccnc(C(=O)N[C@H]2COC(=O)[C@H](Cc3cccnc3)[C@@H](OC(=O)C(C)C)[C@H](C)OC2=O)c1OCOC(=O)C(C)C [Compound 23]	0 to 50	0 to 50	50 to 100	50 to 100	171 to 174		
COc1ccnc(C(=O)N[C@H]2COC(=O)[C@H](Cc3cccc(C(F)(F)F)c3)[C@@H](OC(=O)C(C)C)[C@H](C)OC2=O)c1OCOC(=O)C(C)C [Compound 24]	50 to 100	0 to 50	50 to 100	50 to 100	100 to 103		
COc1ccnc(C(=O)N[C@H]2COC(=O)[C@H](Cc3cccc(-c4ccccc4)c3)[C@@H](OC(=O)C(C)C)[C@H](C)OC2=O)c1OCOC(=O)C(C)C [Compound 25]	50 to 100	0 to 50	50 to 100	50 to 100	55 to 68		
COc1ccnc(C(=O)N[C@H]2COC(=O)[C@H](CCOC(=O)C3CC3)[C@@H](OC(=O)C(C)C)[C@H](C)OC2=O)c1OCOC(=O)C(C)C [Compound 26]	0 to 50	0 to 50	50 to 100	50 to 100	68 to 69		
COc1ccnc(C(=O)N[C@H]2COC(=O)[C@H](CC3CCCCC3)[C@@H](OC(=O)C(C)C)[C@H](C)OC2=O)c1OCOC(=O)C(C)C [Compound 27]	0 to 50	0 to 50	0 to 50	0 to 50	117 to 119		
COc1ccnc(C(=O)N[C@H]2COC(=O)[C@H](CCOC(=O)c3ccccc3)[C@@H](OC(=O)C(C)C)[C@H](C)OC2=O)c1O [Compound 35, 2-((3S,7R,8R,9S)-3-(3-hydroxy-4-methoxypicolinamido)-8-(isobutyryloxy)-9-methyl-2,6-dioxo-1,5-dioxonan-7-yl)ethyl benzoate]	50 to 100		50 to 100		172 to 174	D	D
COc1ccnc(C(=O)N[C@H]2COC(=O)[C@H](CCOC(=O)C3CC3)[C@@H](OC(=O)C(C)C)[C@H](C)OC2=O)c1O [Compound 38]	50 to 100	0 to 50	50 to 100		157 to 159	D	
COc1ccnc(C(=O)N[C@H]2COC(=O)[C@H](CCOC(=O)c3ccc4c(c3)OCO4)[C@@H](OC(=O)C(C)C)[C@H](C)OC2=O)c1O [Compound 39]	50 to 100	0 to 50	50 to 100	0 to 50	159 to 161		
COc1ccnc(C(=O)N[C@H]2COC(=O)[C@H](CCOC(=O)c3ccc(-c4ccccc4)cc3)[C@@H](OC(=O)C(C)C)[C@H](C)OC2=O)c1O [Compound 40]	50 to 100	0 to 50	50 to 100		178 to 179	D	
COc1ccnc(C(=O)N[C@H]2COC(=O)[C@H](CCOC(=O)c3ccc(C(F)(F)F)cc3)[C@@H](OC(=O)C(C)C)[C@H](C)OC2=O)c1O [Compound 42]	0 to 50	0 to 50	50 to 100		160 to 162	D	
COc1ccnc(C(=O)N[C@H]2COC(=O)[C@H](CCOC(=O)c3c(F)c(F)c(F)c(F)c3F)[C@@H](OC(=O)C(C)C)[C@H](C)OC2=O)c1O [Compound 43]	50 to 100	0 to 50	50 to 100	0 to 50	167 to 168		
CCOCC[C@H]1C(=O)OC[C@H](NC(=O)c2nccc(OC)c2O)C(=O)O[C@@H](C)[C@@H]1OC(=O)C(C)C [Compound 45]	0 to 50	0 to 50	50 to 100	50 to 100	134 to 136		
COc1ccnc(C(=O)N[C@H]2COC(=O)[C@H](C)[C@@H](OC(=O)C(C)C)[C@H](C)OC2=O)c1O [Compound 46, (3S,6S,7R,8R)-3-(3-hydroxy-4-methoxypicolinamido)-6,8-dimethyl-4,9-dioxo-1,5-dioxonan-7-yl isobutyrate]	50 to 100		50 to 100	0 to 50	198 to 200		D
COc1ccnc(C(=O)N[C@H]2COC(=O)[C@H](CC(=O)OC(C)(C)C)[C@@H](OC(=O)C(C)C)[C@H](C)OC2=O)c1O [Compound 47, (3S,6S,7R,8R)-8-(2-tert-butoxy-2-oxoethyl)-3-(3-hydroxy-4-methoxypicolinamido)-6-methyl-4,9-dioxo-1,5-dioxonan-7-yl isobutyrate]	50 to 100	50 to 100	50 to 100	50 to 100	192 to 194		
COc1ccnc(C(=O)N[C@H]2COC(=O)[C@H](CC(=O)Oc3ccccc3)[C@@H](OC(=O)C(C)C)[C@H](C)OC2=O)c1O [Compound 48]	50 to 100	0 to 50	50 to 100		176 to 178	D	
COc1ccnc(C(=O)N[C@H]2COC(=O)[C@H](CC(=O)OC(C)C)[C@@H](OC(=O)C(C)C)[C@H](C)OC2=O)c1O [Compound 49]	50 to 100	50 to 100	50 to 100	50 to 100	169 to 170		
COC(=O)C[C@H]1C(=O)OC[C@H](NC(=O)c2nccc(OC)c2O)C(=O)O[C@@H](C)[C@@H]1OC(=O)C(C)C [Compound 50]	50 to 100	50 to 100	50 to 100	50 to 100	138 to 140		
